Key:
[1] = target: T1, Cytochrome P450 2B6 (Homo sapiens, UniProt P20813); test: Drug metabolism assessed as CYP2B6 (unknown origin)-mediated d4-BuOH metabolite formation by measuring Kcat; format: ADME
T1 sequence (P20813 whole entry): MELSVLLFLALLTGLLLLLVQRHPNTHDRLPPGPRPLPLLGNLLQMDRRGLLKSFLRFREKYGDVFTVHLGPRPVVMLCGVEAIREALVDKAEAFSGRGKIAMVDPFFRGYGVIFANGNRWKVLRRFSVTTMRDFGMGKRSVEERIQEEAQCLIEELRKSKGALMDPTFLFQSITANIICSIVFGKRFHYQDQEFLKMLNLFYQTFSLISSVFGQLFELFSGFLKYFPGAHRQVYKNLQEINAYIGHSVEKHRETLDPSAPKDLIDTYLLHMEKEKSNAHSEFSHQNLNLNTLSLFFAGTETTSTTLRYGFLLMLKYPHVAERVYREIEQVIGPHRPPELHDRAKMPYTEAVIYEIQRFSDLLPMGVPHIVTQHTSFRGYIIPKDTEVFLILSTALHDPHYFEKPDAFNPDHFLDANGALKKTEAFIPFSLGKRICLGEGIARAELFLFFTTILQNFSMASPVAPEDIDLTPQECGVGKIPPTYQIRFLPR

[2] = target: T1, Cytochrome P450 2B6; test: Drug metabolism assessed as CYP2B6 (unknown origin)-mediated d4-BuOH metabolite formation by measuring km; format: ADME
[3] = target: T1, Cytochrome P450 2B6; test: Binding affinity to recombinant CYP2B6 (unknown origin) assessed as spectral dissociation constant-1; settings: read-out: Ks
[4] = target: T1, Cytochrome P450 2B6; test: Drug metabolism assessed as CYP2B6 (unknown origin)-mediated d9-BuOH metabolite formation by measuring Kcat; format: ADME
[5] = target: T1, Cytochrome P450 2B6; test: Binding affinity to recombinant CYP2B6 (unknown origin) assessed as spectral dissociation constant-2; settings: read-out: Ks
[6] = target: T1, Cytochrome P450 2B6; test: Drug metabolism assessed as CYP2B6 (unknown origin)-mediated d9-BuOH metabolite formation by measuring km; format: ADME
[7] = target: T1, Cytochrome P450 2B6; test: Drug metabolism assessed as CYP2B6 (unknown origin)-mediated metabolite formation by measuring km; format: ADME
[8] = target: T1, Cytochrome P450 2B6; test: Drug metabolism assessed as CYP2B6 (unknown origin)-mediated metabolite formation by measuring Kcat; format: ADME

Question: `[2H]C([2H])([2H])[C@@]([2H])(NC(C)(C)C)C(=O)c1cccc(Cl)c1` was tested. Which Kcat [1] did it give?
Answer: 0.061 s⁻¹

Question: And the Km [2]?
Answer: 266 µM

Question: What about the Kd [3] of the same molecule?
Answer: 11300 µM

Question: For `[2H]C([2H])([2H])C(N[C@@]([2H])(C)C(=O)c1cccc(Cl)c1)(C([2H])([2H])[2H])C([2H])([2H])[2H]`, which Kcat [4] is on record?
Answer: 0.02462 s⁻¹

Question: What about the Kd [5] of the same molecule?
Answer: 1140 µM

Question: What about the Kd [3] of the same molecule?
Answer: 10.3 µM

Question: What about the Km [6] of the same molecule?
Answer: 279 µM

Question: For `[2H]C([2H])([2H])C(N[C@]([2H])(C)C(=O)c1cccc(Cl)c1)(C([2H])([2H])[2H])C([2H])([2H])[2H]`, which Kcat [4] is on record?
Answer: 0.003865 s⁻¹

Question: What about the Kd [5] of the same molecule?
Answer: 1180 µM

Question: What about the Kd [3] of the same molecule?
Answer: 3.91 µM

Question: And the Km [6]?
Answer: 264 µM

Question: Which Kcat [1] does the source give for `[2H]C([2H])([2H])[C@]([2H])(NC(C)(C)C)C(=O)c1cccc(Cl)c1` here?
Answer: 0.05578 s⁻¹

Question: What about the Km [2] of the same molecule?
Answer: 131 µM

Question: And the Kd [3]?
Answer: 2870 µM

Question: `CC(NC(C)(C)C)C(=O)c1cccc(Cl)c1` (racemic) [BUPROPION] was tested. Which Km [7] did it give?
Answer: 94.7 µM

Question: What about the Kd [3] of the same molecule?
Answer: 314 µM

Question: And the Kcat [8]?
Answer: 0.14 s⁻¹
